The values below come from patent US7754249B2, “Haircare compositions and methods” (The Boots Company PLC, priority 2004, dated 2010).

For the experiment, the system named is interleukin-2 (IL-2) production. Kind of experiment: IL-2 inhibition assay in pha-stimulated human lymphocytes. It counts as cell-based. The conditions noted are these: preliminary trial; cultured human lymphocytes stimulated with pha, with or without CsA. The procedure:
The potential for the extracts to reduce/prevent hair loss or promote hair growth were assessed by an IL-2 inhibition assay. IL-2 has been associated with inhibition of hair growth and promotion of hair loss.
Human lymphocytes were extracted from blood and cultured using standard techniques. A preliminary trial was carried out to ensure that test cells were able to produce IL-2 when stimulated with phytohaemogluttinin (pha), a known IL-2 promoter, and also for this stimulation to be inhibited using Cyclosporin A (CsA) which is a known inhibitor of IL-2 production.
Following this confirmation of the capability of the cells to produce IL-2, studies using the extracts were carried out using the same methodology, but with the extracts replacing CsA. Results are shown in Table 2 and expressed as % IL-2 inhibition compared to control.
Control=50% denatured ethanol, 50% propylene glycol.
All materials were used at 1 in 1000 dilution.

As to phytohaemogluttinin [pha], the “IL-2” value was >1000 pg/mL.
